Measured values: patent US8957238B2, “Process for preparing malathion for pharmaceutical use” (priority 2005, dated 2015)
Like-named read-outs stand apart in the source and are kept apart here.

Columns and labels:
[1] = Storage stability of malathion prepared by the process of the invention, HPLC after storage (Example 7, Table IV); type: physicochemical
Protocol: The malathion prepared by the process of the invention was tested for storage stability. Malathion prepared by the process of the invention was stored under a variety of different temperature and humidity conditions for up to three (3) months. […] The purity of the sample was determined after storage using HPLC.
Table IV presents the analytical data showing storage of two, different batches of malathion after storage under a variety of different conditions.
MeOOSPO, MeOSSPO, malaxon, MeOOSPS, diethyl fumarate, dimethyl malathion, methyl malathion, O,O-methyl, ethyl S-(1,2-dicarboethoxy)ethyl phosphorodithioate, tetraethyl dithiosuccinate, isomalathion, malathion carboxylic acids, mercaptosuccinate and the tetraethyl thiodisuccinate were assayed for by HPLC. The mobile phase was a mixture of water, acetonitrile and methanol (480:370:150) and one drop of 85% phosphoric acid for each […] of mobile phase. Method validation was performed and system reproducibility, linearity, repeatability, intermediate precision, recovery of related compounds and sensitivity were assessed according to standard methology (U.S. Pharmacopeia, 2004, U.S. Pharmacopeial Convention, Inc., 12601 Twinbrook Parkway, Rockville, Md. 20852). If necessary, the mobile phase composition and/or flow rate were adjusted to meet the chromatographic parameters.

[2] = molecular target: acetylcholinesterase (Homo sapiens, UniProt P22303); conditions: cited from earlier work
Sequence of acetylcholinesterase (P22303 32-614): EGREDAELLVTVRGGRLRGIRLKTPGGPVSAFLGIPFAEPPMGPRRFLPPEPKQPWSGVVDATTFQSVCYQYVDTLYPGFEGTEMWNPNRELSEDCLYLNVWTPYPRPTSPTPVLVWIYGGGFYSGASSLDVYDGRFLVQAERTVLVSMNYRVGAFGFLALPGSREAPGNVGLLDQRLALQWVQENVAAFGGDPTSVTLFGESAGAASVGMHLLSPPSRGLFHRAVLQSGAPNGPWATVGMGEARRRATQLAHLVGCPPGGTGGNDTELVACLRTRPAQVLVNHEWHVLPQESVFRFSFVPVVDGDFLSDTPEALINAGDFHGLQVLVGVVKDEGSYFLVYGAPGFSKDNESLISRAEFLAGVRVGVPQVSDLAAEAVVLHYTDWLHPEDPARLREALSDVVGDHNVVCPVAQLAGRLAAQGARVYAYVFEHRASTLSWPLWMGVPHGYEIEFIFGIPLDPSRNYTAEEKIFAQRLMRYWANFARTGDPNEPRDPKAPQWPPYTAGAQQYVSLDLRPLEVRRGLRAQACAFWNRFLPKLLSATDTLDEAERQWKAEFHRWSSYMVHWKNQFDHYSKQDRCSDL

[3] = tested on: people; conditions: after spraying during insect eradication programs; cited from earlier work
[4] = can cause death from hypoxia; cited from earlier work
[5] = tested on: cholinesterase enzymes; conditions: cited from earlier work
[6] = cited from earlier work
[7] = tested on: mice; conditions: after storage for 6 months at 40° C.; cited from earlier work
[8] = Storage at 25° C., 60% relative humidity for 3 months
[9] = Storage at 30° C. and 60% relative humidity for 3 months
[10] = Storage at 40° C. and 75% relative humidity for 3 months

CCOC(=O)CC(SP(=S)(OC)OC)C(=O)OCC (centres unmarked) [Batch I, [(dimethoxyphosphinothioyl)thio]butanedioic acid diethyl ester]
Diethyl fumarate in malathion ([1]; Baseline, time 0): <0.01 % (w/w) | Dimethyl malathion in malathion ([1]; Baseline, time 0): <0.02 % (w/w) | Malaoxon in malathion ([1]; Baseline, time 0): <0.05 % (w/w) | Malathion Purity ([1]; Baseline, time 0): 99.5 % (w/w) | MeOOSPO in malathion ([1]; Baseline, time 0): <0.04 % (w/w) | MeOOSPS in malathion ([1]; Baseline, time 0): 0.1 % (w/w) | MeOSSPO in malathion ([1]; Baseline, time 0): <0.02 % (w/w) | Methyl malathion in malathion ([1]; Baseline, time 0): 0.06 % (w/w) | Diethyl fumarate in malathion ([1]; Storage at 5° C. for 3 months): <0.01 % (w/w) | Dimethyl malathion in malathion ([1]; Storage at 5° C. for 3 months): <0.02 % (w/w) | Malaoxon in malathion ([1]; Storage at 5° C. for 3 months): <0.02 % (w/w) | Malathion Purity ([1]; Storage at 5° C. for 3 months): 99.7 % (w/w) | MeOOSPO in malathion ([1]; Storage at 5° C. for 3 months): <0.04 % (w/w) | MeOOSPS in malathion ([1]; Storage at 5° C. for 3 months): 0.1 % (w/w) | MeOSSPO in malathion ([1]; Storage at 5° C. for 3 months): <0.02 % (w/w) | Methyl malathion in malathion ([1]; Storage at 5° C. for 3 months): 0.06 % (w/w) | Diethyl fumarate in malathion [1, 8]: <0.01 % (w/w) | Dimethyl malathion in malathion [1, 8]: <0.02 % (w/w) | Malaoxon in malathion [1, 8]: <0.02 % (w/w) | Malathion Purity [1, 8]: 99.0 % (w/w) | MeOOSPO in malathion [1, 8]: <0.04 % (w/w) | MeOOSPS in malathion [1, 8]: 0.1 % (w/w) | MeOSSPO in malathion [1, 8]: <0.02 % (w/w) | Methyl malathion in malathion [1, 8]: 0.06 % (w/w) | Diethyl fumarate in malathion [1, 9]: <0.01 % (w/w) | Dimethyl malathion in malathion [1, 9]: <0.02 % (w/w) | Malaoxon in malathion [1, 9]: <0.02 % (w/w) | Malathion Purity [1, 9]: 99.0 % (w/w) | MeOOSPO in malathion [1, 9]: <0.04 % (w/w) | MeOOSPS in malathion [1, 9]: 0.1 % (w/w) | MeOSSPO in malathion [1, 9]: <0.02 % (w/w) | Methyl malathion in malathion [1, 9]: 0.06 % (w/w) | Diethyl fumarate in malathion [1, 10]: <0.02 % (w/w) | Dimethyl malathion in malathion [1, 10]: <0.02 % (w/w) | Malaoxon in malathion [1, 10]: <0.05 % (w/w) | Malathion Purity [1, 10]: 97.5 % (w/w) | MeOOSPO in malathion [1, 10]: 0.05 % (w/w) | MeOOSPS in malathion [1, 10]: 0.2 % (w/w) | MeOSSPO in malathion [1, 10]: <0.02 % (w/w) | Methyl malathion in malathion [1, 10]: 0.06 % (w/w)

CCOC(=O)CC(SP(=S)(OC)OC)C(=O)OCC (centres unmarked) [Batch II, [(dimethoxyphosphinothioyl)thio]butanedioic acid diethyl ester]
Diethyl fumarate in malathion ([1]; Baseline, time 0): <0.06 % (w/w) | Dimethyl malathion in malathion ([1]; Baseline, time 0): <0.02 % (w/w) | Malaoxon in malathion ([1]; Baseline, time 0): <0.05 % (w/w) | Malathion Purity ([1]; Baseline, time 0): 99.5 % (w/w) | MeOOSPO in malathion ([1]; Baseline, time 0): <0.04 % (w/w) | MeOOSPS in malathion ([1]; Baseline, time 0): 0.09 % (w/w) | MeOSSPO in malathion ([1]; Baseline, time 0): <0.02 % (w/w) | Methyl malathion in malathion ([1]; Baseline, time 0): 0.08 % (w/w) | Diethyl fumarate in malathion ([1]; Storage at 5° C. for 3 months): <0.01 % (w/w) | Dimethyl malathion in malathion ([1]; Storage at 5° C. for 3 months): <0.02 % (w/w) | Malaoxon in malathion ([1]; Storage at 5° C. for 3 months): <0.05 % (w/w) | Malathion Purity ([1]; Storage at 5° C. for 3 months): 99.7 % (w/w) | MeOOSPO in malathion ([1]; Storage at 5° C. for 3 months): <0.04 % (w/w) | MeOOSPS in malathion ([1]; Storage at 5° C. for 3 months): 0.1 % (w/w) | MeOSSPO in malathion ([1]; Storage at 5° C. for 3 months): <0.09 % (w/w) | Methyl malathion in malathion ([1]; Storage at 5° C. for 3 months): 0.07 % (w/w) | Diethyl fumarate in malathion [1, 8]: <0.01 % (w/w) | Dimethyl malathion in malathion [1, 8]: <0.02 % (w/w) | Malaoxon in malathion [1, 8]: <0.05 % (w/w) | Malathion Purity [1, 8]: 99.4 % (w/w) | MeOOSPO in malathion [1, 8]: <0.04 % (w/w) | MeOOSPS in malathion [1, 8]: 0.09 % (w/w) | MeOSSPO in malathion [1, 8]: <0.02 % (w/w) | Methyl malathion in malathion [1, 8]: 0.07 % (w/w) | Diethyl fumarate in malathion [1, 9]: <0.01 % (w/w) | Dimethyl malathion in malathion [1, 9]: <0.02 % (w/w) | Malaoxon in malathion [1, 9]: <0.05 % (w/w) | Malathion Purity [1, 9]: 99.1 % (w/w) | MeOOSPO in malathion [1, 9]: <0.04 % (w/w) | MeOOSPS in malathion [1, 9]: 0.1 % (w/w) | MeOSSPO in malathion [1, 9]: <0.02 % (w/w) | Methyl malathion in malathion [1, 9]: 0.08 % (w/w) | Diethyl fumarate in malathion [1, 10]: <0.02 % (w/w) | Dimethyl malathion in malathion [1, 10]: <0.02 % (w/w) | Malaoxon in malathion [1, 10]: <0.05 % (w/w) | Malathion Purity [1, 10]: 97.4 % (w/w) | MeOOSPO in malathion [1, 10]: 0.05 % (w/w) | MeOOSPS in malathion [1, 10]: 0.2 % (w/w) | MeOSSPO in malathion [1, 10]: <0.02 % (w/w) | Methyl malathion in malathion [1, 10]: 0.08 % (w/w)

CCOC(=O)CC(SP(=O)(OC)SC)C(=O)OCC (centres unmarked) [Isomalathion]
activity against acetylcholinesterase as compared with malathion [2]: approximately 1,000 times | death in people [3]: cause death in people | pulmonary toxicity [4]: exhibit pulmonary toxicity

CCOC(=O)CC(SP(=O)(OC)OC)C(=O)OCC (centres unmarked) [Malaoxon]
inhibition of cholinesterase enzymes [5]: inhibits cholinesterase enzymes

COP(=O)(OC)SC [MeOOSPO, O,O,S-trimethyl phosphorothioate]
pulmonary toxicity [4]: exhibit pulmonary toxicity

CCOC(=O)CC(SP(=S)(OC)OCC)C(=O)OCC (stereo not drawn) [O,O-methyl,ethyl-S-(1,2-dicarboethoxy)ethyl-phosphorodithioate]
pulmonary toxicity [4]: exhibit pulmonary toxicity

CCOC(=O)CC(SP(=S)(OC)OC)C(=O)OCC (centres unmarked) [malathion prepared by the process of the invention] [[(dimethoxyphosphinothioyl)thio]butanedioic acid diethyl ester]
Malathion Purity ([1]; Storage at 5° C. for 3 months): greater than 98.5 % (w/w) | Malathion Purity [1, 8]: greater than 98.5 % (w/w) | Malathion Purity [1, 9]: greater than 98.5 % (w/w)

CCOC(=O)CC(SP(=S)(OC)OC)C(=O)OCC (centres unmarked) [malathion, [(dimethoxyphosphinothioyl)thio]butanedioic acid diethyl ester]
isomalathion content of malathion ([6]; after storage for 6 months at 40° C.): 0.45% | isomalathion content of malathion ([6]; before storage): 0.2% | increase in toxicity as measured by LD50 in mice [7]: 35%
